Source: publication PMC12948427 (The Journal of Clinical Investigation, 2025)
Where “and” joins values, the source holds several entries; their conditions need not be identical. Equal values may be shown once. Read-outs that look alike come from different tables or passages of the source.

What was measured:
SARS-CoV-2 wild-type = test: microbe, parasite or virus in culture; type: cell-based
MHV [1] = test: microbe, parasite or virus in culture; type: cell-based, mouse hepatitis virus (MHV); conditions: Murine coronavirus, 24 h, read-out: EC50 (IFA)
HCoV-229E = test: In vitro antiviral activity assay (IFA), HCoV-229E; type: cell-based; conditions: for Inhibition rate (IFA): Fig 5F, MOI 0.1, 48 h
MHV [2] = test: microbe, parasite or virus in culture; conditions: Murine coronavirus, 24 h, read-out: EC50, rescue of coronavirus-induced cytopathic effects
MHV [3] = system: MHV
WIV1 [4] = test: microbe, parasite or virus in culture; type: cell-based, bat coronavirus WIV1; conditions: Bat coronavirus, 48 h, read-out: EC50 (IFA)
MHV [5] = type: cell-based, mouse hepatitis virus (MHV)
[6] = type: cell-based
SARS-CoV-2 Omicron BA.5 = test: microbe, parasite or virus in culture; type: cell-based; conditions: Severe acute respiratory syndrome coronavirus 2, 24 h, read-out: EC50 (IFA)
WIV1 [7] = type: cell-based, bat coronavirus WIV1
HCoV-NL63 = test: In vitro antiviral activity assay (IFA), HCoV-NL63; type: cell-based; conditions: for Inhibition rate (IFA): Fig 5C, MOI 0.1, 48 h
HCoV-OC43 = test: In vitro antiviral activity assay (IFA), HCoV-OC43; type: cell-based; conditions: for Inhibition rate (IFA): Fig 5E, MOI 0.1, 48 h
[8] = biological target: M146 (SARS-CoV-2 M 135-146 peptide fused with HIV-TAT) (HIV | SARS-CoV-2) (UniProt P0DTC5); test: SPR
[9] = biological target: M161 (SARS-CoV-2 M 135-161 peptide fused with HIV-TAT) (HIV | SARS-CoV-2) (UniProt P0DTC5); test: SPR
[10] = biological target: M146 (SARS-CoV-2 M 135-146 peptide fused with HIV-TAT) (HIV | SARS-CoV-2) (UniProt P0DTC5); test: SPR; remark: listed apart in the source
[11] = biological target: M161 (SARS-CoV-2 M 135-161 peptide fused with HIV-TAT) (HIV | SARS-CoV-2) (UniProt P0DTC5); test: SPR; remark: listed apart in the source

hHGS 1-390-6 × HIS protein, sequence (O14964 1-390): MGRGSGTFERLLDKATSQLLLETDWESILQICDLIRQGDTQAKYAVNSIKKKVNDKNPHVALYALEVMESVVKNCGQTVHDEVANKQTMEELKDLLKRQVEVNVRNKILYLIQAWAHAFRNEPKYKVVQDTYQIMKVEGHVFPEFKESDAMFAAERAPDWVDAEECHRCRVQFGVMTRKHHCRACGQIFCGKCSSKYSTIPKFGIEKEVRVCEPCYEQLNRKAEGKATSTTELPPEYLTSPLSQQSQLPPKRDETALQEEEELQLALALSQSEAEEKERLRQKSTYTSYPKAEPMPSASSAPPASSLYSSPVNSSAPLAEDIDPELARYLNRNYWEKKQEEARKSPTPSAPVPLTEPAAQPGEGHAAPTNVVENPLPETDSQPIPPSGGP
M161 (SARS-CoV-2 M 135-161 peptide fused with HIV-TAT) (HIV | SARS-CoV-2), sequence (P0DTC5 135-161 limits assumed): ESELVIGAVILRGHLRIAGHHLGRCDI

CCC(CC)COC(=O)[C@H](C)N[P@](=O)(OC[C@H]1O[C@@](C#N)(c2ccc3c(N)ncnn23)[C@H](O)[C@@H]1O)Oc1ccccc1 [RDV, remdesivir]
Inhibition rate (IFA) (SARS-CoV-2 wild-type): -18.2121%
EC50 (SARS-CoV-2 wild-type; Severe acute respiratory syndrome coronavirus 2, 24 h, read-out: EC50 (IFA)): 3510 nM
EC50 (MHV [1]): 1290 nM
cell viability, Figures S9A, B, D-F (17Cl-1 cells; concentration 0.01): 103.896 and 102.857
cell viability, Figures S9A, B, D-F (17Cl-1 cells; concentration 0.03): 100
cell viability, Figures S9A, B, D-F (17Cl-1 cells; concentration 0.1): 100
cell viability, Figures S9A, B, D-F (17Cl-1 cells; concentration 0.3): 100
cell viability, Figures S9A, B, D-F (17Cl-1 cells; concentration 1): 100
cell viability, Figures S9A, B, D-F (17Cl-1 cells; concentration 3): 100
cell viability, Figures S9A, B, D-F (17Cl-1 cells; concentration 10): 100
cell viability, Figures S9A, B, D-F (17Cl-1 cells; concentration 25): 100
Inhibition rate (IFA) (HCoV-229E; conc 30 (unit not given)): -0.99% and -1.45% and 0.82%
Inhibition rate (IFA) (HCoV-229E; conc 100 (unit not given)): -0.44% and -1.37% and -2.88%
Inhibition rate (IFA) (HCoV-229E; conc 300 (unit not given)): 11.16% and 13% and 6.71%
Inhibition rate (IFA) (HCoV-229E; conc 1000 (unit not given)): 47.55% and 40.71% and 45.97%
Inhibition rate (IFA) (HCoV-229E; conc 3000 (unit not given)): 81.01% and 82.05% and 81.07%
Inhibition rate (IFA) (HCoV-229E; conc 10000 (unit not given)): 97.22% and 97.53% and 97.6%
Inhibition rate (IFA) (HCoV-229E; conc 25000 (unit not given)): 98.73% and 98.28%
EC50 (HCoV-229E; Human coronavirus 229E, 48 h, read-out: EC50 (IFA)): 1010 nM
EC50 (MHV [2]): 690 nM
viability of infected cells (rescue of cytopathic effect), Figures S9G-L (MHV [3]; concentration 10): 46.7323 and 45.5347 and 44.3372
viability of infected cells (rescue of cytopathic effect), Figures S9G-L (MHV [3]; concentration 30): 45.5347 and 43.8916 and 43.4181
viability of infected cells (rescue of cytopathic effect), Figures S9G-L (MHV [3]; concentration 100): 50.492 and 47.7906 and 49.378
viability of infected cells (rescue of cytopathic effect), Figures S9G-L (MHV [3]; concentration 300): 59.7939 and 57.0925 and 55.143
viability of infected cells (rescue of cytopathic effect), Figures S9G-L (MHV [3]; concentration 1000): 78.2027 and 84.5804 and 83.9955
viability of infected cells (rescue of cytopathic effect), Figures S9G-L (MHV [3]; concentration 3000): 102.237 and 100.176 and 102.46
viability of infected cells (rescue of cytopathic effect), Figures S9G-L (MHV [3]; concentration 10000): 103.491 and 100.789 and 102.906
viability of infected cells (rescue of cytopathic effect), Figures S9G-L (MHV [3]; concentration 25000): 101.903 and 103.017 and 102.042
EC50 (WIV1 [4]): 2420 nM
Extracellular MHV gRNA (Figure S11A) (MHV [5]; Ctr 17Cl-1 cells, 24 hpi): 1.417 and 1.434 and 1.4484
Extracellular MHV gRNA (Figure S11A) (MHV [5]; Ctr 17Cl-1 cells, 48 hpi): 2.342 and 2.426 and 2.427
Extracellular MHV gRNA (Figure S11A) (MHV [5]; Ctr 17Cl-1 cells, 72 hpi): 2.913 and 2.938 and 2.965
Extracellular MHV gRNA (Figure S11A) (MHV [5]; Hgs-KO1 17Cl-1 cells, 24 hpi): 0.1732 and 0.2504 and 0.2945
Extracellular MHV gRNA (Figure S11A) (MHV [5]; Hgs-KO1 17Cl-1 cells, 48 hpi): 0.5159 and 0.4955 and 0.5011
Extracellular MHV gRNA (Figure S11A) (MHV [5]; Hgs-KO1 17Cl-1 cells, 72 hpi): 0.5763 and 0.5575 and 0.5302
Extracellular MHV gRNA (Figure S11A) (MHV [5]; Hgs-KO2 17Cl-1 cells, 48 hpi): 0.243 and 0.2742 and 0.2718
Extracellular MHV gRNA (Figure S11A) (MHV [5]; Hgs-KO2 17Cl-1 cells, 72 hpi): 0.4771 and 0.48 and 0.4728
antiviral activity in Hgs-KO cells (MHV [5]; MHV, Hgs-KO 17Cl-1, RTB 25 μM or RDV 5 μM, compared with DMSO-treated Hgs-KO cells): maintained potent antiviral activity
Inhibition, time-of-drug-addition (Figures S12A, S12B) ([6]; 1h, concentration 30 (unit not given)): 5.191 and 6.604 and 3.913
Inhibition, time-of-drug-addition (Figures S12A, S12B) ([6]; 1h, concentration 300 (unit not given)): 29.4212 and 36.852 and 30.2123
Inhibition, time-of-drug-addition (Figures S12A, S12B) ([6]; 1h, concentration 1000 (unit not given)): 94.0553 and 94.9808 and 93.9778
Inhibition, time-of-drug-addition (Figures S12A, S12B) ([6]; 1h, concentration 3000 (unit not given)): 100.171 and 99.7032 and 100.277
Inhibition, time-of-drug-addition (Figures S12A, S12B) ([6]; 1h, concentration 10000 (unit not given)): 100.334 and 99.9318 and 99.6732
Inhibition, time-of-drug-addition (Figures S12A, S12B) ([6]; 1h, concentration 25000 (unit not given)): 99.7405 and 99.6154 and 100.895
Inhibition, time-of-drug-addition (Figures S12A, S12B) ([6]; 3h, concentration 300 (unit not given)): 9.79 and 17.6203 and 16.0643
Inhibition, time-of-drug-addition (Figures S12A, S12B) ([6]; 3h, concentration 1000 (unit not given)): 55.9963 and 60.6001 and 59.2495
Inhibition, time-of-drug-addition (Figures S12A, S12B) ([6]; 3h, concentration 3000 (unit not given)): 88.3762 and 86.7679 and 87.568
Inhibition, time-of-drug-addition (Figures S12A, S12B) ([6]; 3h, concentration 10000 (unit not given)): 90.2121 and 88.9101 and 87.2358
Inhibition, time-of-drug-addition (Figures S12A, S12B) ([6]; 3h, concentration 25000 (unit not given)): 90.2507 and 90.1885 and 92.1218
Inhibition, time-of-drug-addition (Figures S12A, S12B) ([6]; 5h, concentration 1000 (unit not given)): 25.3228 and 41.8171 and 37.9682
Inhibition, time-of-drug-addition (Figures S12A, S12B) ([6]; 5h, concentration 3000 (unit not given)): 84.9456 and 81.9798 and 79.5741
Inhibition, time-of-drug-addition (Figures S12A, S12B) ([6]; 5h, concentration 10000 (unit not given)): 96.9121 and 98.7645 and 101.081
Inhibition, time-of-drug-addition (Figures S12A, S12B) ([6]; 5h, concentration 25000 (unit not given)): 101.735 and 102.093 and 102.226
Inhibition, time-of-drug-addition (Figures S12A, S12B) ([6]; 7h, concentration 3000 (unit not given)): 42.654 and 32.1868 and 38.6066
Inhibition, time-of-drug-addition (Figures S12A, S12B) ([6]; 7h, concentration 10000 (unit not given)): 72.2116 and 77.3057 and 82.6181
Inhibition, time-of-drug-addition (Figures S12A, S12B) ([6]; 7h, concentration 25000 (unit not given)): 95.7566 and 91.5378 and 92.3496
antiviral activity versus time of treatment start ([6]; RTB 25 μM or RDV 5 μM added at 0, 2, 4 or 6 hpi): decreased in a time-dependent manner
EC50 (SARS-CoV-2 Omicron BA.5): 1730 nM
extracellular viral gRNA levels (RT-qPCR) (WIV1 [7]): 1.00 and 2.00
Inhibition rate (IFA) (HCoV-NL63; conc 10 (unit not given)): -13.7402% and -16.2366% and -15.0261%
Inhibition rate (IFA) (HCoV-NL63; conc 300 (unit not given)): 80.1311% and 63.4462% and 86.5422%
Inhibition rate (IFA) (HCoV-NL63; conc 1000 (unit not given)): 98.8533% and 99.4472% and 99.9344%
Inhibition rate (IFA) (HCoV-NL63; conc 3000 (unit not given)): 99.4236% and 99.6729% and 98.5431%
Inhibition rate (IFA) (HCoV-NL63; conc 10000 (unit not given)): 99.8898% and 100.315% and 100.324%
Inhibition rate (IFA) (HCoV-NL63; conc 25000 (unit not given)): 100.095% and 100.184% and 100.326%
EC50 (HCoV-NL63; Human coronavirus NL63, 48 h, read-out: EC50 (IFA)): 200 nM
EC50 (HCoV-OC43; Betacoronavirus 1, OC43, 48 h, read-out: EC50 (IFA)): 410 nM
Inhibition rate (IFA) (HCoV-OC43; conc 10 (unit not given)): 50.23% and 41.56% and 35.15%
Inhibition rate (IFA) (HCoV-OC43; conc 30 (unit not given)): 35.85% and 33.9% and 36.83%
Inhibition rate (IFA) (HCoV-OC43; conc 100 (unit not given)): 54.42% and 40.68% and 45.58%
Inhibition rate (IFA) (HCoV-OC43; conc 300 (unit not given)): 65.9% and 68.1% and 71.65%
Inhibition rate (IFA) (HCoV-OC43; conc 1000 (unit not given)): 93.48% and 93.42% and 95.53%
Inhibition rate (IFA) (HCoV-OC43; conc 3000 (unit not given)): 103.3% and 99.46% and 99.73%
Inhibition rate (IFA) (HCoV-OC43; conc 10000 (unit not given)): 112.73% and 104.65% and 109.25%
Inhibition rate (IFA) (HCoV-OC43; conc 25000 (unit not given)): 117.32% and 112.33% and 115.73%

hHGS 1-390-6 × HIS protein (from UniProt O14964 1-390) (domain or fragment)
Kd [8]: 5.73 nM
Kd [9]: 3.84 nM
Kd [10]: 210 nM
Kd [11]: 830 nM
